Data on 1 compound can be found in publication PMC7465040, “Cytotoxic and Anti-Plasmodial Activities of Stephania dielsiana Y.C. Wu Extracts and the Isolated Compounds” (Molecules, 2020).

Where two headings read alike, the source gives them in different places.

One assay has as its system MCF 10A. Nature of the assay: SRB cell proliferation assay, MCF10A non-cancer cells. Type of assay: cell-based. The note with it: Homo sapiens, read-out: IC50 (μM ± SD) MCF 10A. As for the experimental part: (§1) In vitro anticancer study: The in vitro anti-proliferative tests were carried out as described previously, using aliquots of the cell lines used therein. Briefly, HeLa, MDA-MB-231 and MDA-MB-468, MCF7, and 184B5 and MCF 10A cell lines were purchased from ATCC. The identity of the cell lines presented in this study were verified by short tandem repeat profiling by Genetica DNA Laboratories (www.celllineauthentication.com) (April 8, 2015). MCF10A was grown in DMEM F12 medium supplemented with 0.02 μg/mL epidermal growth factor, 10% FBS, 10 μg/mL insulin and […] hydrocortisone. MDA-MB-468 were grown in DMEM supplemented with 10% FBS and antibiotics cocktail (100 μg/mL streptomycin, 100 units/mL penicillin and 250 ng/mL amphotericin B). SRB cell proliferation assays were carried out as previously described, with some minor modifications. The concentration range for all tested cell lines were from 100–0.39 μg/mL for extracts and 100–0.39 μM for pure compounds. […] All experiments were carried out at least twice.

The next assay concerns HeLa cells. Nature of the assay: Cell cycle analysis, propidium iodide flow cytometry. Type of assay: cell-based, human. The note with it: asynchronous HeLa, 10 μM, 12–72 h. The protocol: Cell cycle analysis: Propidium iodide staining and flow cytometry analysis were carried out as described previously with minor modifications. Briefly, 250,000 HeLa cells (50,000 cells/mL) were treated with 10 μM oxostephanine (1) and harvested at the indicated time points. All experiments were carried out at least twice.
(In general: In flow cytometry, cells or beads pass a laser one at a time.)

In assay [1] the test system is phosphorylation of histone H3 on Ser-10 in HeLa cells. Nature of the assay: Western blot, histone H3 Ser-10 phosphorylation. Type of assay: cell-based, human. To be noted: 12 h. The protocol:
(§2) Western Blot analysis: Western blotting was carried out as described previously. The primary antibodies used were from Cell Signaling (Histone H3; p-Histone H3^S10 and Phospho-Aurora A (Thr288)/Aurora B (Thr232)/Aurora C (Thr198)) and used at recommended dilution. For cell synchronization at prometaphase, HeLa cells were treated with 50 ng/mL nocodazole (NZ) (Santa Cruz Biotechnology) for 12 h. All experiments were carried out at least twice.
For orientation: In western blotting, separated proteins are transferred to a membrane and probed.

The next assay deals with MDA-MB-468. Nature of the assay: SRB cell proliferation assay, MDA-MB-468. Type of assay: cell-based, human. The protocol: as §1
The test system of assay [2] is Aurora A, B, and C phosphorylation in HeLa cells arrested in mitosis. Nature of the assay: Western blot, autophosphorylation of Aurora kinases. Type of assay: cell-based, human. To be noted: 20 μM, 12 h. As for the experimental part: as §2
The subject of another assay is HeLa. In words: SRB cell proliferation assay, HeLa. Type of assay: cell-based, human. To be noted: for IC50: 72 h, Table 2A, SRB, read-out: IC50 (μM ± SD) HeLa. As for the experimental part: as §1

As to `COc1cccc2c1C(=O)c1nccc3cc4c(c-2c13)OCO4` [Oxostephanine 1, oxostephanine], the IC50 in the assay on MCF 10A (Table 2A, SRB, 72 h) was found to be 2.49 ± 0.11 µM; in the assay on MCF 10A (Table 3, non-cancer cell line) it was 2.49 ± 0.11 µM; with MDA-MB-468 (Homo sapiens, MDA-MB-468, Table 2A, SRB, 72 h, read-out: IC50 (μM ± SD) MDA-MB-468) it was 2.26 ± 0.54 µM; with HeLa (Homo sapiens, HeLa), 1.73 µM; with HeLa it was 1.76 ± 0.2 µM. Further, in the assay with HeLa cells, the Cell cycle distribution result was “induces a transient G2/M arrest and apoptotic cell death”. The “Phosphorylation of histone H3 on Ser-10” value in assay [1] is on record as “dramatically downregulated”. The “Selectivity index (SI) 184B5 versus MDA-MB-468” value with MDA-MB-468 (Table 2B, non-cancer 184B5 vs cancer MDA-MB-468) turned out to be 0.73. Besides, the “Selectivity index (SI) MCF10A versus MDA-MB-468” value in the assay on MDA-MB-468 (Table 2B, non-cancer MCF10A vs cancer MDA-MB-468) came out at 1.10. For the same compound, the “Autophosphorylation of Aurora kinases A, B and C” value in assay [2] is recorded as “inhibits the auto-phosphorylation of all three Aurora kinases”. In addition, the “Selectivity index (SI) 184B5 versus HeLa” value in the assay on HeLa (Table 2B, non-cancer 184B5 vs cancer HeLa) is on record as 0.94. Moreover, in the assay with HeLa (Table 2B, non-cancer MCF10A vs cancer HeLa), the “Selectivity index (SI) MCF10A versus HeLa” value turned out to be 1.40. For the same compound, the “Increase in effectiveness compared with stephanine (3), HeLa” value with HeLa (ratio of IC50) is recorded as 2 fold.

What is called IC50 is the midpoint of a concentration-inhibition curve.
